Laboratory results taken from ChEMBL document CHEMBL1151021, “Synthesis of potent 6-oxo and 9-fluoro-PGE1-derivatives and their biological properties” (Bioorg Med Chem Lett, 1992).
Active and inactive are the calls of the source. The rule behind the calls is not given here.

Key:
[1] = target: Prostacyclin receptor (Homo sapiens) (UniProt P43119); test: The compound was evaluated for the affinity towards Prostaglandin I2 receptor
[2] = Concentration required for the inhibition of blood platelet aggregation induced by ADP; format: functional
[3] = The compound was evaluated for the affinity towards PGE-2 receptor
[4] = target: T1, Prostaglandin D2 receptor (Homo sapiens) (UniProt Q13258); test: The compound was evaluated for the affinity towards PGD-2 receptor
T1 sequence (whole entry): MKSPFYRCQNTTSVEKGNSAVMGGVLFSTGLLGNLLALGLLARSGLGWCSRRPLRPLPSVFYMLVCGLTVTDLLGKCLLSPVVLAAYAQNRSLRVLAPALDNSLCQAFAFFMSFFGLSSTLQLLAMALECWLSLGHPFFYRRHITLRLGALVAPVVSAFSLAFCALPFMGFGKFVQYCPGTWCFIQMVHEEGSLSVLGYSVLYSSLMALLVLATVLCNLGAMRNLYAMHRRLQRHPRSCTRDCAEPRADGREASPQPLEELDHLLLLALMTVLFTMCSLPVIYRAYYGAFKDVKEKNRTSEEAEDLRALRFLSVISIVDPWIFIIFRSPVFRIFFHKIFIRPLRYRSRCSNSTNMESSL

[5] = target: Prostacyclin receptor (Homo sapiens) (UniProt P43119); test: The compound was evaluated for the affinity towards Prostaglandin I2 receptor; not parallel
[6] = target: Prostacyclin receptor (Homo sapiens) (UniProt P43119); test: The compound was evaluated for the affinity towards Prostaglandin I2 receptor; no competition
[7] = The compound was evaluated for the affinity towards PGE-2 receptor; no competition

Chain of Prostacyclin receptor (Homo sapiens) (P43119 whole entry): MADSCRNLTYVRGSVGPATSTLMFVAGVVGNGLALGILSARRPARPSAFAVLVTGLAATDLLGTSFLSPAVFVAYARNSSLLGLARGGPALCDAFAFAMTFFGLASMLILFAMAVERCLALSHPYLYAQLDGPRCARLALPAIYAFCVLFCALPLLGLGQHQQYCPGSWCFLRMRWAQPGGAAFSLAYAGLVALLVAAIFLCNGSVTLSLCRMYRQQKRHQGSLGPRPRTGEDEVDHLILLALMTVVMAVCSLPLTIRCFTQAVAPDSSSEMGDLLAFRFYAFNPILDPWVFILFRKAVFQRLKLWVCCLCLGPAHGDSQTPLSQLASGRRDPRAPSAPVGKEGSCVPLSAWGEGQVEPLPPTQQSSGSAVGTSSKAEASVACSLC

Row | SMILES | KF [1] | IC50 [2] | KF [3] | KF [4] | KF [5] | KF [6] | KF [7]
1 | CCC#CC[C@H](C)[C@H](O)C#C[C@H]1[C@H](O)CC(=O)[C@@H]1CC(=O)CCCCC(=O)O | 5 | 0.09 nM | 7.5 | – | – | – | –
2 | CC#CCC(C)[C@H](O)/C=C/[C@H]1[C@H](O)CC(=O)[C@@H]1CC(=O)CCCCC(=O)O (some centres undefined) | 60 | 1.6 nM | 140 | 600 | – | – | –
3 | CCCCC[C@H](O)/C=C/[C@H]1[C@H](O)CC(=O)[C@@H]1CC(=O)CCCCC(=O)O | 129 | 7 nM | 7.1 | – | – | – | –
4 | CC#CC[C@H](C)[C@H](O)/C=C/[C@@H]1[C@@H](CC(=O)CCCCC(=O)O)[C@@H](F)C[C@H]1O | – | 1000 nM | – | – | – | inactive | –
5 | CC#CC[C@H](C)[C@H](O)/C=C/[C@H]1[C@H](O)CC(=O)[C@@H]1CC(=O)CCCCC(=O)O | – | 1 nM | 40 | – | 40 | – | –

More lines, in order of falling IC50 [2], values ahead:

Row | KF [1] | IC50 [2] | KF [3] | KF [4] | KF [5] | KF [6] | KF [7] | SMILES
6 | – | 100 nM | – | – | 200 | – | – | CC#CC[C@H](C)[C@H](O)/C=C/[C@@H]1[C@@H](CC(=O)CCCCC(=O)O)[C@H](F)C[C@H]1O
7 | – | 20 nM | 700 | – | 32 | – | – | CCC#CC[C@H](C)[C@H](O)C#C[C@@H]1[C@@H](CC(=O)CCCCC(=O)O)[C@H](F)C[C@H]1O
8 | 58 | 3 nM | – | 70 | – | – | inactive | O=C(O)CCCCC(=O)C[C@H]1C(=O)C[C@@H](O)[C@@H]1/C=C/[C@@H](O)C1CCCCC1
